Tested on: Rat Chronic Constriction Injury Model
Settings: 0.02 mg/kg/day subcutaneously
Description: A 2-month chronic constriction injury (CCI) model of neuropathic pain was used to evaluate different formulations of a clonidine, encapsulated in bioerodable polymers compared to fluocinolone given subcutaneously (SC). Different formulations as provided in Table 5 below were evaluated for reducing pain-associated behaviors: Thermal paw withdrawal latency was evaluated at baseline 7, 14, 21, 28, 35, 42, 49, 56 and […] mechanical threshold was evaluated at 8, 15, 22, 29, 36, 43, 50, 57 and 64 days post-operatively.
The inventor evaluated the efficacy of a five Month Clonidine/Polyrner Drug Depot in the Rat Chronic Constriction Injury Model. The animal model was the Bennett Model (Wistar rat). The purpose: To determine whether a five month polymer clonidine-eluting depot can improve pain associated behavioral responses in a rat model of neuropathic pain.
Experimental Design: Four loose chromic gut ligatures, 1 mm apart, were tied around the common sciatic nerve at mid-thigh. Each animal received treatment of test or control article-according to the dosing described in Table 5.
The inventor has conducted the present study for a period of 64 days and have employed the following two tests: (1) the Hargreaves test; and (2) the von Frey test. The Hargreaves Tests of Thermal Hyperalgesia were conducted on days 7, 14, 21, 28, 35, 42, 49, 56 and 63. […]

How did the “pain behavioral response (measured as a percentage of baseline) for thermal hyperalgesia” value (FIG. 3, vs unloaded polymer depots 45%) turn out when `Clc1cccc(Cl)c1N=C1NCCN1` [clonidine, 2,6-dichloro-N-2-imidazolidinyldenebenzenamine] was run?
The value was 58%.

And the “pain behavioral response (percentage of baseline) for mechanical allodynia, in words” value (FIG. 4, compared to unloaded polymer depots)?
Its value is “reduced the behavioral response”.
